Data reported in US10647675B2 (priority 2015, dated 2020).
Values after ≈ are worked out from the molar mass of the structure shown.

Columns and labels:
[1] = test system: Trichophyton rubrum KD-1130; test: Antifungal activity evaluation test: minimum inhibitory concentration (MIC), broth dilution by reference to CLSI M38-A2; assay type: cell-based; conditions: KD1130, read-out: MIC (T. rubrum)
Procedure: (§1) The minimum inhibitory concentration (MIC) for Trichophyton mentagrophytes and Trichophyton rubrum was measured by the following procedure by reference to Clinical and Laboratory standards Institute (CLSI) guidelines M38-A2. Reference document for the measurement method: National Committee for a Clinical Laboratory Standards. Reference method for broth dilution antifungal susceptibility testing of filamentous fungi. Approved standard Second edition M38-A2. Wayne, Pa.: National Committee for a Clinical Laboratory Standards, 2008. • Test compound solution: A test compound was dissolved in dimethyl sulfoxide (DMSO) at a concentration of 2.5 mg/mL to give a stock solution. The stock solution was appropriately diluted with DMSO to prepare a 2-fold dilution series. As control compounds, terbinafine and amorolfine were used. • Test strains: Trichophyton mentagrophytes SM-110 and Trichophyton rubrum KD-1130 were used. • Preparation of fungal culture to be inoculated: The above-mentioned test strain was suspended in 0.05% Tween 80-containing saline, and the fungi of the genus Trichophyton were prepared to a fungal concentration of 1×10^6 cells/mL by using a hemocytometer. Then, using MOPS-buffered RPMI 1640 medium (pH 7.0) as a test medium, a fungal culture of the fungi of the genus Trichophyton was diluted 250-fold (4×10^3 cells/mL) to give a fungal culture for inoculation. • MIC measurement of genus Trichophyton fungi: MOPS-buffered RPMI 1640 medium (pH 7.0) was dispensed by 100 μL to given wells of a 96 well U-bottom microplate. Then, the test compound solution (2 μL) was added, the mixture was sufficiently stirred by a plate mixer. The fungal culture (100 μL) was inoculated and the mixture was cultured at 35° C. for 4 days (final fungal concentration: 2×10^3 cells/mL). After the culture, the minimum drug concentration of a well in which a growth inhibitory action of not less than 80% was visually observed as compared to a growth control was taken as a minimum inhibitory concentration (MIC: μg/mL).
(§2) The abbreviations in the Tables mean the following fungi and compounds. • T. menta.: Trichophyton mentagrophytes • T. rubrum: Trichophyton rubrum • TBF: terbinafine • AMF: amorolfine

[2] = test system: Trichophyton mentagrophytes SM-110; test: as above; assay type: cell-based; conditions: SM110, read-out: MIC (T. menta.)
Procedure: as §1, §2

MIC [1] [µg/mL] | MIC [2] [µg/mL] | Structure (SMILES)
0.2 to 0.78 (≈ 0.524 to 2.05 µM) | 0.2 to 0.78 (≈ 0.524 to 2.05 µM) | N#Cc1cnn2c(-c3cccnc3Oc3ccc(C(F)(F)F)nc3)cccc12 [I-54, 7-(2-{[6-(trifluoromethyl)pyridin-3-yl]oxy}pyridin-3-yl)-pyrazolo[1,5-a]pyridine-3-carbonitrile]
0.2 to 0.78 (≈ 0.5 to 1.95 µM) | 0.2 to 0.78 (≈ 0.5 to 1.95 µM) | FC(F)(F)c1ccc(Oc2ncccc2-c2ccccc2OCC2CCC2)cn1 [I-55, 3-[2-(cyclobutylmethoxy)phenyl]-2-{[6-(trifluoromethyl)pyridin-3-yl]oxy}pyridine]
0.2 to 0.78 (≈ 0.54 to 2.11 µM) | 0.2 to 0.78 (≈ 0.54 to 2.11 µM) | C#CCOc1ccccc1-c1cccnc1Oc1ccc(C(F)(F)F)nc1 [I-56, 3-[2-(2-propyn-1-yloxy)phenyl]-2-{[6-(trifluoromethyl)pyridin-3-yl]oxy}pryidine]
0.2 to 0.78 (≈ 0.518 to 2.02 µM) | 0.2 to 0.78 (≈ 0.518 to 2.02 µM) | FC(F)(F)c1ccc(Oc2ncccc2-c2ccccc2OCC2CC2)cn1 [I-57, 3-[2-(cyclopropylmethoxy)phenyl]-2-{[6-(trifluoromethyl)pyridin-3-yl]oxy}pryidine]
0.2 to 0.78 (≈ 0.561 to 2.19 µM) | 0.2 to 0.78 (≈ 0.561 to 2.19 µM) | FC(F)(F)c1ccc(Oc2ncccc2-c2ccccc2C2CC2)cn1 [I-59, 3-(2-cyclopropylphenyl)-2-{[6-(trifluoromethyl)pyridin-3-yl]oxy}pryidine]
0.2 to 0.78 (≈ 0.555 to 2.16 µM) | 0.2 to 0.78 (≈ 0.555 to 2.16 µM) | COCc1ccccc1-c1cccnc1Oc1ccc(C(F)(F)F)nc1 [I-60]
1.56 to 6.25 (≈ 4.71 to 18.9 µM) | 1.56 to 6.25 (≈ 4.71 to 18.9 µM) | Nc1ccccc1-c1cccnc1Oc1ccc(C(F)(F)F)nc1 [I-61, 2-(2-{[6-(trifluoromethyl)pyridin-3-yl]oxy}pyridin-3-yl)-aniline]
0.2 to 0.78 (≈ 0.557 to 2.17 µM) | 1.56 to 6.25 (≈ 4.34 to 17.4 µM) | CN(C)c1ccccc1-c1cccnc1Oc1ccc(C(F)(F)F)nc1 [I-62, N,N-dimethyl-2-(2-{[6-(trifluoromethyl)pyridin-3-yl]oxy}pyridin-3-yl)-aniline]
0.2 to 0.78 (≈ 0.581 to 2.27 µM) | 0.2 to 0.78 (≈ 0.581 to 2.27 µM) | O=Cc1ccccc1-c1cccnc1Oc1ccc(C(F)(F)F)nc1 [I-63, 2-(2-{[6-(trifluoromethyl)pyridin-3-yl]oxy}pyridin-3-yl)-benzaldehyde]
≤ 0.1 | ≤ 0.1 | C#Cc1ccccc1-c1cccnc1Oc1ccc(C(F)(F)F)nc1 [I-64, 3-(2-ethynylphenyl)-2-{[6-(trifluoromethyl)pyridin-3-yl]oxy}pyridine]
≤ 0.1 | 0.2 to 0.78 (≈ 0.555 to 2.16 µM) | COc1ccccc1-c1c(C)ccnc1Oc1ccc(C(F)(F)F)nc1 [I-65, 3-(2-methoxyphenyl)-4-methyl-2-{[6-(trifluoromethyl)pyridin-3-yl]oxy}pyridine]
0.2 to 0.78 (≈ 0.555 to 2.16 µM) | 1.56 to 6.25 (≈ 4.33 to 17.3 µM) | COc1ccccc1-c1cc(C)cnc1Oc1ccc(C(F)(F)F)nc1 [I-66, 3-(2-methoxyphenyl)-5-methyl-2-{[6-(trifluoromethyl)pyridin-3-yl]oxy}pyridine]
0.2 to 0.78 (≈ 0.555 to 2.16 µM) | 0.2 to 0.78 (≈ 0.555 to 2.16 µM) | COc1ccccc1-c1ccc(C)nc1Oc1ccc(C(F)(F)F)nc1 [I-67]
1.56 to 6.25 (≈ 5.34 to 21.4 µM) | 1.56 to 6.25 (≈ 5.34 to 21.4 µM) | COc1ccccc1-c1cccnc1Oc1ccc(C)nc1 [I-68]
1.56 to 6.25 | 1.56 to 6.25 | COc1ccccc1-c1cccnc1Oc1ccc(COC(C)=O)nc1 [I-69, (5-{[3-(2-methoxyphenyl)-pyridin-2-yl]oxy}pyridin-2-yl)methyl acetate]
1.56 to 6.25 (≈ 5.09 to 20.4 µM) | 1.56 to 6.25 (≈ 5.09 to 20.4 µM) | COc1ccccc1-c1cccnc1Oc1ccc(C=O)nc1 [I-71, 5-{[3-(2-methoxyphenyl)pyridin-2-yl]oxy}picolinaldehyde]
0.2 to 0.78 (≈ 0.609 to 2.38 µM) | 0.2 to 0.78 (≈ 0.609 to 2.38 µM) | COc1ccccc1-c1cccnc1Oc1ccc(C(F)F)nc1 [I-72, 2-{[6-(difluoromethyl)pyridin-3-yl]oxy}(2-methoxyphenyl)pyridine]
≤ 0.1 | ≤ 0.1 | COc1cc(F)ccc1-c1cccnc1Oc1ccc(C(F)F)nc1 [I-73, 2-{[6-(difluoromethyl)pyridin-3-yl]oxy}-3-(4-fluoro-2-methoxyphenyl)pyridine]
≤ 0.1 | ≤ 0.1 | COc1ccc(F)c(-c2cccnc2Oc2ccc(C(F)F)nc2)c1 [I-74, 2-{[6-(difluoromethyl)pyridin-3-yl]oxy}-3-(2-fluoro-5-methoxyphenyl)pyridine]
≤ 0.1 | ≤ 0.1 | COc1cc(-c2cccnc2Oc2ccc(C(F)F)nc2)ccc1F [I-75, 2-{[6-(difluoromethyl)pyridin-3-yl]oxy}-3-(4-fluoro-3-methoxyphenyl)pyridine]

MIC [1] [µg/mL] | MIC [2] [µg/mL] | Structure (SMILES)
≤ 0.1 | ≤ 0.1 | COc1cc(F)c(F)cc1-c1cccnc1Oc1ccc(C(F)F)nc1 [I-76, 3-(4,5-difluoro-2-methoxyphenyl)-2-{[6-(difluoromethyl)pyridin-3-yl]oxy}pyridine]
≤ 0.1 | ≤ 0.1 | COc1cc(-c2cccnc2Oc2ccc(C(F)F)nc2)c(F)cc1F [I-77, 3-(2,4-difluoro-5-methoxyphenyl)-2-{[6-(difluoromethyl)pyridin-3-yl]oxy}pyridine]
≤ 0.1 | ≤ 0.1 | COc1ccc(-c2cccnc2Oc2ccc(C(F)F)nc2)c(OC)n1 [I-78, 2′-{[6-(difluoromethyl)pyridin-3-yl]oxy}-2,6-dimethoxy-3,3′-bipyridine]
1.56 to 6.25 (≈ 4.35 to 17.4 µM) | 0.2 to 0.78 (≈ 0.558 to 2.18 µM) | COc1ccccc1-c1cccnc1Oc1ccc(C(F)(F)CO)nc1 [I-79, 2,2-difluoro-2-(5-{[3-(2-methoxyphenyl)pyridin-2-yl]oxy}pyridin-2-yl)ethanol]
0.2 to 0.78 | 0.2 to 0.78 | COc1ccccc1-c1cccnc1Oc1ccc(C(F)(F)COS(=O)(=O)C(F)(F)F)nc1 [I-80, 2,2-difluoro-2-(5-{[3-(2-methoxyphenyl)pyridin-2-yl]oxy}pyridin-2-yl)ethyl trifluoromethanesulfonate]
≤ 0.1 | ≤ 0.1 | COc1ccccc1-c1cccnc1Oc1ccc(C(C)(F)F)nc1 [I-81, 2-{[6-(1,1-difluoroethyl)pyridin-3-yl]oxy}-3-(2-methoxyphenyl)pyridine]
≤ 0.1 | ≤ 0.1 | COc1cc(F)ccc1-c1cccnc1Oc1ccc(C(C)(F)F)nc1 [I-82]
≤ 0.1 | ≤ 0.1 | COc1ccc(F)cc1-c1cccnc1Oc1ccc(C(C)(F)F)nc1 [I-83, 2-{[6-(1,1-difluoroethyl)pyridin-3-yl]oxy}-3-(5-fluoro-2-methoxyphenyl)pyridine]
≤ 0.1 | ≤ 0.1 | COc1ccc(OC)c(-c2cccnc2Oc2ccc(C(C)(F)F)nc2)c1 [I-84, 2-{[6-(1,1-difluoroethyl)pyridin-3-yl]oxy}-3-(2,5-dimethoxyphenyl)pyridine]
≤ 0.1 | ≤ 0.1 | COc1cc(-c2cccnc2Oc2ccc(C(C)(F)F)nc2)c(F)cc1F [I-85]
0.2 to 0.78 (≈ 0.552 to 2.15 µM) | 0.2 to 0.78 (≈ 0.552 to 2.15 µM) | CC(F)(F)c1ccc(Oc2ncccc2-c2ccccc2C(F)F)cn1 [I-86, 2-{[6-(1,1-difluoroethyl)pyridin-3-yl]oxy}-3-[2-(difluoromethyl)phenyl]pyridine]
0.2 to 0.78 (≈ 0.563 to 2.2 µM) | 0.2 to 0.78 (≈ 0.563 to 2.2 µM) | CC(F)(F)c1ccc(Oc2ncccc2-c2cccc(F)c2C#N)cn1 [I-87, 2-(2-{[6-(1,1-difluoroethyl)pyridin-3-yl]oxy}pyridin-3-yl)-6-fluorobenzonitrile]
≤ 0.1 | ≤ 0.1 | COc1ncccc1-c1cccnc1Oc1ccc(C(C)(F)F)nc1 [I-88, 2-{[6-(1,1-difluoroethyl)pyridin-3-yl]oxy}-2′-methoxy-3,3′-bipyridine]
0.2 to 0.78 (≈ 0.583 to 2.27 µM) | 0.2 to 0.78 (≈ 0.583 to 2.27 µM) | COc1cnccc1-c1cccnc1Oc1ccc(C(C)(F)F)nc1 [I-89, 2-{[6-(1,1-difluoroethyl)pyridin-3-yl]oxy}-3′-methoxy-3,4′-bipyridine]
0.2 to 0.78 (≈ 0.583 to 2.27 µM) | 0.2 to 0.78 (≈ 0.583 to 2.27 µM) | COc1ccncc1-c1cccnc1Oc1ccc(C(C)(F)F)nc1 [I-90, 2-{[6-(1,1-difluoroethyl)pyridin-3-yl]oxy}-4′-methoxy-3,3′-bipyridine]
0.2 to 0.78 (≈ 0.611 to 2.38 µM) | 0.2 to 0.78 (≈ 0.611 to 2.38 µM) | Cc1ccncc1-c1cccnc1Oc1ccc(C(C)(F)F)nc1 [I-91, 2-{[6-(1,1-difluoroethyl)pyridin-3-yl]oxy}-4′-methyl-3,3′-bipyridine]
0.2 to 0.78 (≈ 0.604 to 2.35 µM) | 0.2 to 0.78 (≈ 0.604 to 2.35 µM) | CC(F)(F)c1ccc(Oc2ncccc2-c2ccncc2F)cn1 [I-92, 2-{[6-(1,1-difluoroethyl)pyridin-3-yl]oxy}-3′-fluoro-3,4′-bipyridine]
0.2 to 0.78 (≈ 0.611 to 2.38 µM) | 0.2 to 0.78 (≈ 0.611 to 2.38 µM) | Cc1cncc(-c2cccnc2Oc2ccc(C(C)(F)F)nc2)c1 [I-93, 2-{[6-(1,1-difluoroethyl)pyridin-3-yl]oxy}-5′-methyl-3,3′-bipyridine]
≤ 0.1 | ≤ 0.1 | COc1ccc(-c2cccnc2Oc2ccc(C(C)(F)F)nc2)c(OC)n1 [I-94, 2′-{[6-(1,1-difluoroethyl)pyridin-3-yl]oxy}-2,6-dimethoxy-3,3′-bipyridine]
0.2 to 0.78 (≈ 0.583 to 2.27 µM) | 0.2 to 0.78 (≈ 0.583 to 2.27 µM) | COc1cccc(-c2cccnc2Oc2ccc(C(C)(F)F)nc2)n1 [I-95, 2′-{[6-(1,1-difluoroethyl)pyridin-3-yl]oxy}-6-methoxy-2,3′-bipyridine]
